Measurements from patent publication US12319664B2, “Herbicidally active 3-phenylisoxazoline-5-carboxamides of cyclopentenylcarboxylic acid derivatives” (Bayer Aktiengesellschaft, priority 2018, dated 2025).

Key:
[1] = tested on: ALOMY; experiment: Post-emergence herbicidal action against ALOMY; format: in vivo, Alopecurus myosuroides; settings: application rate 80 g/ha, rated visually after about 3 weeks
How it was run: (§1)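 Post-emergence spray, one-leaf stage; sandy loam, greenhouse; WP/EC in water + 0.5% additive, 600 l/ha; visual % damage vs untreated at ~3 wk (100% = dead).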

[2] = tested on: AVEFA; experiment: Post-emergence herbicidal action against AVEFA; format: in vivo, Avena fatua; settings: application rate 80 g/ha, rated visually after about 3 weeks
How it was run: as §1

[3] = tested on: ECHCG; experiment: Post-emergence herbicidal action against ECHCG; format: in vivo, Echinochloa crus-galli; settings: application rate 80 g/ha, rated visually after about 3 weeks
How it was run: as §1

[4] = tested on: LOLRI; experiment: Post-emergence herbicidal action against LOLRI; format: in vivo, Lolium rigidum; settings: application rate 80 g/ha, rated visually after about 3 weeks
How it was run: as §1

[5] = tested on: SETVI; experiment: Post-emergence herbicidal action against SETVI; format: in vivo, Setaria viridis; settings: application rate 80 g/ha, rated visually after about 3 weeks
How it was run: as §1

[6] = tested on: ABUTH; experiment: Post-emergence herbicidal action against ABUTH; format: in vivo, Abutilon theophrasti; settings: application rate 80 g/ha, rated visually about 3 weeks after treatment
How it was run: as §1

[7] = tested on: AMARE; experiment: Post-emergence herbicidal action against AMARE; format: in vivo, Amaranthus retroflexus; settings: application rate 80 g/ha, rated visually about 3 weeks after treatment
How it was run: as §1

[8] = tested on: PHBPU; experiment: Post-emergence herbicidal action against PHBPU; format: in vivo, Pharbitis purpurea; settings: application rate 80 g/ha, rated visually about 3 weeks after treatment
How it was run: as §1

[9] = tested on: POLCO; experiment: Post-emergence herbicidal action against POLCO; format: in vivo, Polygonum convolvulus; settings: application rate 80 g/ha, rated visually about 3 weeks after treatment
How it was run: as §1

[10] = tested on: STEME; experiment: Post-emergence herbicidal action against STEME; format: in vivo, Stellaria media; settings: application rate 80 g/ha, rated visually about 3 weeks after treatment
How it was run: as §1

[11] = tested on: VIOTR; experiment: Post-emergence herbicidal action against VIOTR; format: in vivo, Viola tricolor; settings: application rate 80 g/ha, rated visually about 3 weeks after treatment
Method: [table] 2. Post-emergence herbicidal action against harmful plants and crop plant compatibility Seeds of monocotyledonous and dicotyledonous weeds and crop plants are placed in sandy loam in plastic or wood-fibre pots, covered with soil and cultivated in a greenhouse under controlled growth conditions. 2 to 3 weeks after sowing, the test plants are treated at the one-leaf stage. The compounds of the invention, formulated in the form of wettable powders (WP) or as emulsion concentrates (EC), are then sprayed onto the green parts of the plants as aqueous suspension or emulsion with addition of 0.5% additive at a water application rate of 600 l/ha (converted). After the test plants have been kept in the greenhouse under optimum growth conditions for about 3 weeks, the activity of the preparations is rated visually in comparison to untreated controls. For example, 100% activity=the plants have died, 0% activity=like control plants.

[12] = tested on: VERPE; experiment: Post-emergence herbicidal action against VERPE; format: in vivo, Veronica persica; settings: application rate 80 g/ha
How it was run: as §1

[13] = tested on: HORMU; experiment: Post-emergence herbicidal action against HORMU; format: in vivo, Hordeum murinum; settings: application rate 80 g/ha
How it was run: as §1

Compound	Herbicidal action against [%] ALOMY [1]	Herbicidal action against [%] AVEFA [2]	Herbicidal action against [%] ECHCG [3]	Herbicidal action against [%] LOLRI [4]	Herbicidal action against [%] SETVI [5]	Herbicidal action against [%] ABUTH [6]	Herbicidal action against [%] AMARE [7]	Herbicidal action against [%] PHBPU [8]	Herbicidal action against [%] POLCO [9]	Herbicidal action against [%] STEME [10]	Herbicidal action against [%] VIOTR [11]	Herbicidal action against [%] VERPE [12]	Herbicidal action against [%] HORMU [13]
CC(C)(C#N)NC(=O)C1C=CC(NC(=O)C2(C(F)(F)F)CC(c3cc(F)cc(F)c3)=NO2)C1 (mixture of isomers) [II-34]	90%	100%	80%	90%	80%	80%	90%	90%	90%	90%	90%	90%	80%
COC(=O)C1C=CC(NC(=O)C2(C(F)(F)F)CC(c3cccc(C#N)c3)=NO2)C1 (mixture of isomers) [Example I-087]	100%	100%	80%	100%	80%	90%	90%	90%	90%	90%	90%	90%	100%
CC1(C(=O)NC2C=CC(C(=O)O)C2)CC(c2cc(F)cc(C#N)c2)=NO1 (mixture of isomers) [Example I-075]	100%		90%	100%	80%	80%	90%	90%	90%	90%	90%	90%	100%
N#Cc1cc(F)cc(C2=NOC(C(=O)NC3C=CC(C(=O)O)C3)(C(F)(F)F)C2)c1 (mixture of isomers) [Example I-090]	100%	100%	80%	100%	90%	90%	90%	90%	90%	90%	90%	90%	100%
C=CC1(C(=O)N[C@H]2CC=C(C(=O)OCC)C2)CC(c2cc(F)cc(F)c2)=NO1 (some centres unmarked) [III-17]	100%	90%	80%	90%	80%	80%	90%	90%	80%	90%	80%	90%	90%
C=CC1(C(=O)N[C@H]2CC=C(C(=O)O)C2)CC(c2cc(F)cc(F)c2)=NO1 (some centres unmarked) [III-09]	90%	100%	90%	100%	80%	80%	90%	90%	90%	90%	90%	90%	100%
COC(=O)C1C=CC(NC(=O)C2(C)CC(c3cc(F)cc(C#N)c3)=NO2)C1 (mixture of isomers) [Example I-084]	100%	100%	90%	100%	90%	90%	90%	90%	90%	100%	90%	90%	100%
N#Cc1cc(F)cc(C2=NOC(C(=O)N[C@H]3C=C[C@@H](C(=O)OCC(F)(F)F)C3)(C(F)(F)F)C2)c1 (some centres unmarked) [Example I-096]	100%	100%	80%	100%	80%	90%	90%	90%	90%	90%	90%	90%	100%
COCCOC(=O)C1C=CC(NC(=O)C2(C)CC(c3cc(F)cc(C#N)c3)=NO2)C1 (mixture of isomers) [Example I-082]	100%	100%	90%	100%	90%	90%	90%	90%	90%	90%	90%	90%	100%
C=CC1(C(=O)N[C@H]2CC=C(C(=O)OCCOCC)C2)CC(c2cc(F)cc(F)c2)=NO1 (some centres unmarked) [III-16]		100%	90%	100%	80%	80%	90%	90%	90%	80%	90%	80%	90%
N#Cc1cccc(C2=NOC(C(=O)NC3C=CC(C(=O)OCCCl)C3)(C(F)(F)F)C2)c1 (mixture of isomers) [Example I-088]		100%	90%	100%	90%	90%	90%	90%	90%	90%	90%	90%	90%
